Test results taken from patent US9347077B2, “Over-expression of a putative oxidoreductase (UcpA) for increasing furfural or 5-hydroxymethylfurfural tolerance” (UNIVERSITY OF FLORIDA RESEARCH FOUNDATION, INCORPORATED, priority 2011, dated 2016).

Legend:
Format in all cases: cell-based, Escherichia coli
[1] = tested on: oxidoreductase gene mRNA in LY180; assay: Comparison of mRNA levels before and after furfural addition (expression array); conditions: 1.5 g/L furfural addition in LY180
Description: Analysis of mRNA as a measure of gene expression was performed as previously described (Miller et al., 2009a). Cultures were grown using 4 separate 500-ml fermentation vessels per strain. Initial samples (control) were removed for RNA extraction when the culture density reached approximately 0.66 g dry cell weight (dcw) liter^−1 (1.5 OD 550 nm). Furfural (15 mM) was then added and incubation continued. After 15 min incubation with furfural, cells were harvested for RNA extraction. RNA was submitted to NimbleGen for analysis of global expression. Expression data was further analyzed using ArrayStar and Excel.
UcpA was discovered accidentally as a beneficial gene for furfural tolerance during a search for E. coli NADH-utilizing oxidoreductase genes that could reduce furfural and confer resistance. […] We began by comparing expression levels of all E. coli genes in the absence of furfural and in the presence of 15 mM furfural (Table 1). […] These were further sorted to identify 5 candidate oxidoreductases that are known or putative users of NADH and have a 3-fold or higher expression level in the presence of 15 mM furfural. One of the genes was fucO, a gene previously discovered to reduce furfural using NADH and to increase furfural tolerance in E. coli. Four new candidates were identified. Two were operons encoding subunits (xdhABC and YeiTA) and two were monocistronic (ucpA and aldA). These 4 candidates are shown in bold type in Table 2.

XW118 (LY180 ucpA::kan) = assay: pH-controlled batch fermentation (10% xylose)
Description: The effects of UcpA on growth, ethanol production, and furfural metabolism were investigated in more detail during pH-controlled batch fermentation in mineral salt medium (AM1 medium containing 100 g xylose liter^−1, 0.1 mM IPTG and 12.5 μg ml^−1 ampicillin for all cultures harboring plasmids; furfural as indicated; inoculum of 22 mg dcw liter^−1) as previously described (Wang et al., 2011b). Ethanol (retention time 1.1 min) and furfuryl alcohol (retention time 6.2 min) were measured using an Agilent 6890N gas chromatograph (Santa Clara, Calif.) (Miller et al., 2009b). Furoic acid (retention time of 51.2 min) and sugars were measured by high-performance liquid chromatography (Geddes et al., 2010a). Furfural was measured using a Beckman-Coulter DU 800 spectrophotometer (Martinez et al., 2000a).

[2] = tested on: XW137 (E. coli W ucpA::kan); assay: pH-controlled batch fermentation (10% xylose)
LY180(pTrc99A) = assay: Furfural toxicity / MIC in tube cultures, vector control; conditions: Escherichia coli, 48 h, read-out: MIC of furfural
Description: (§1) Furfural toxicity was measured in tube cultures (13 mm by 100 mm) containing 4 ml of AM1 medium with 50 g liter^−1 xylose, 12.5 mg liter^−1 ampicillin, furfural, and other supplements as indicated (Miller et al., 2009a, b). Cultures were inoculated to an initial density of 22 mg dcw liter^−1. IPTG (0.1 mM) was included for fucO induction. Cell mass was measured at 550 nm after incubation for 48 h (37° C.). For cysteine supplement experiment, the culture condition was the same but included 0.1 mM cysteine as an amendment.
(§2) Derivatives of LY180 containing these plasmids were tested for furfural tolerance with (0.1 mM IPTG) and without IPTG induction using an MIC assay (Miller et al., 2009a; Miller et al., 2010; Wang et al., 2011b).

LY180 (pLOI4856) [3] = assay: In vivo (whole cell) furfural reduction; conditions: plasmid copies of ucpA; similar to the vector control
Description: In vivo furfural reduction was measured during incubation in AM1 medium containing 10 mM furfural and 50 g liter^−1 xylose. Cells were pre-incubated with chloramphenicol (40 mg liter^−1) for 1 h to arrest growth (0.88 mg dcw cells ml^−1), prior to the addition of furfural. Furfural concentration was measured as previously described using a Beckman spectrophotometer DU800 (Martinez et al., 2000b).

LY180 = assay: pH-controlled batch fermentation (10% xylose)
E. coli W/pLOI4856 = assay: pH-controlled batch fermentation (10% xylose); conditions: 10 mM furfural
E. coli W/pTrc99A = assay: pH-controlled batch fermentation (10% xylose); conditions: 10 mM furfural
LY180 (pLOI4856) [4] = assay: Furfural toxicity / MIC in tube cultures, ucpA plasmid; conditions: Escherichia coli, 48 h, read-out: MIC of furfural
Description: as §1, §2

For `O=Cc1ccco1` [furfural], the “Fold increase of mRNA, yagQ” value ([1]; b0283-b0286 yagQRST, 1st value) was 2.2 fold, the “Fold increase of mRNA, yagR” value ([1]; b0283-b0286 yagQRST, 2nd value) was 2.3 fold and the “Fold increase of mRNA, yagS” value ([1]; b0283-b0286 yagQRST, 3rd value) was 4.7 fold. The “Fold increase of mRNA, yagT” value ([1]; b0283-b0286 yagQRST, 4th value) was 3.5 fold, the “Fold increase of mRNA, ykgE” value ([1]; b0306) was 2.0 fold and the “Fold increase of mRNA, frmB” value ([1]; b0355-b0356 frmBA, 1st value) was 4.4 fold. The “Fold increase of mRNA, frmA” value ([1]; b0355-b0356 frmBA, 2nd value) was 5.7 fold, the “Fold increase of mRNA, yajO” value ([1]; b0419) was 2.6 fold and the “Fold increase of mRNA, ybdH” value ([1]; b0599) was 3.0 fold. The “Fold increase of mRNA, sdhA” value ([1]; b0723-b0724 sdhAB, 1st value) was 5.3 fold, the “Fold increase of mRNA, sdhB” value ([1]; b0723-b0724 sdhAB, 2nd value) was 5.8 fold and the “Fold increase of mRNA, ybiC” value ([1]; b0801) was 2.2 fold. For the same compound, the “Fold increase of mRNA, wrbA” value ([1]; b1004) was 3.0 fold, the “Fold increase of mRNA, yciW” value ([1]; b1287) was 2.4 fold and the “Fold increase of mRNA, ydbC” value ([1]; b1406) was 2.9 fold. For the same compound, the “Fold increase of mRNA, aldA” value ([1]; b1415) was 4.2 fold, the “Fold increase of mRNA, ydcW” value ([1]; b1444) was 2.5 fold and the “Fold increase of mRNA, yncB” value ([1]; b1449) was 2.6 fold. The “Fold increase of mRNA, nemA” value ([1]; b1650) was 6.4 fold, the “Fold increase of mRNA, yobF” value ([1]; b2137) was 8.5 fold and the “Fold increase of mRNA, yeiT” value ([1]; b2146-b2147 yeiTA, 1st value) was 3.1 fold. For the same compound, the “Fold increase of mRNA, yeiA” value ([1]; b2146-b2147 yeiTA, 2nd value) was 3.0 fold, the “Fold increase of mRNA, yeiQ” value ([1]; b2172) was 2.3 fold and the “Fold increase of mRNA, ucpA” value ([1]; b2426) was 4.5 fold. The “Fold increase of mRNA, yphC” value ([1]; b2545) was 2.3 fold, the “Fold increase of mRNA, fucO” value ([1]; b2799) was 4.4 fold and the “Fold increase of mRNA, xdhABC” value ([1]; b2868) was 5.8 fold. The “Fold increase of mRNA, ygfS” value ([1]; b2886) was 2.1 fold, the “Fold increase of mRNA, yqfA” value ([1]; b2899) was 2.2 fold and the “Fold increase of mRNA, yghZ” value ([1]; b3001) was 2.0 fold. The “Fold increase of mRNA, yqhD” value ([1]; b3011) was 4.6 fold, the “Fold increase of mRNA, dkgA” value ([1]; b3012) was 5.4 fold and the “Fold increase of mRNA, yiaK” value ([1]; b3572) was 2.4 fold. The “Fold increase of mRNA, aldB” value ([1]; b3588) was 5.7 fold, the “Cell Yield” value (XW118 (LY180 ucpA::kan); 8 mM furfural) was 4.0 ± 0.1 g/L and the “Furfural-dependent slow growth Duration” value (XW118 (LY180 ucpA::kan); 8 mM furfural) was 55 ± 2 h. The “Furfural-dependent slow growth μ” value (XW118 (LY180 ucpA::kan); 8 mM furfural) was 0.01 ± 0.01 h⁻¹, the “μ Max” value (XW118 (LY180 ucpA::kan); 8 mM furfural) was 0.14 ± 0.01 h⁻¹ and the “Cell Yield” value (XW118 (LY180 ucpA::kan); 10 mM furfural) was 0.04 ± 0.01 g/L. The “Furfural-dependent slow growth Duration” value (XW118 (LY180 ucpA::kan); 10 mM furfural) was over 72 h, the “Furfural-dependent slow growth μ” value (XW118 (LY180 ucpA::kan); 10 mM furfural) was under 0.04 h⁻¹ and the “μ Max” value (XW118 (LY180 ucpA::kan); 10 mM furfural) was under 0.04 h⁻¹. The “Cell Yield” value ([2]; 8 mM furfural) was 1.9 ± 0.1 g/L, the “Furfural-dependent slow growth Duration” value ([2]; 8 mM furfural) was 16 ± 3 h and the “Furfural-dependent slow growth μ” value ([2]; 8 mM furfural) was 0.11 ± 0.02 h⁻¹. The “Cell Yield” value ([2]; 10 mM furfural) was 1.9 ± 0.1 g/L, the “Furfural-dependent slow growth Duration” value ([2]; 10 mM furfural) was 37 ± 2 h and the “Furfural-dependent slow growth μ” value ([2]; 10 mM furfural) was 0.02 ± 0.01 h⁻¹. For the same compound, the “μ Max” value ([2]; 10 mM furfural) was 0.12 ± 0.02 h⁻¹, the MIC (LY180(pTrc99A)) was 10 mM and the “Whole-cell specific activity (furfural reductase)” value (LY180 (pLOI4856) [3]) was under 0.10 U mg dcw^−1. For the same compound, the “Cell Yield” value (LY180; 8 mM furfural) was 4.0 ± 0.1 g/L, the “Furfural-dependent slow growth μ” value (LY180; 8 mM furfural) was 0.09 ± 0.01 h⁻¹ and the “μ Max” value (LY180; 8 mM furfural) was 0.16 ± 0.01 h⁻¹. The “Cell Yield” value (LY180; 10 mM furfural) was 0.08 ± 0.02 g/L, the “Furfural-dependent slow growth Duration” value (LY180; 10 mM furfural) was over 72 h and the “Furfural-dependent slow growth μ” value (LY180; 10 mM furfural) was under 0.04 h⁻¹. For the same compound, the “μ Max” value (LY180; 10 mM furfural) was under 0.04 h⁻¹, the “Cell Yield” value (E. coli W/pLOI4856) was 2.5 ± 0.3 g/L and the “Furfural-dependent slow growth Duration” value (E. coli W/pLOI4856) was 16 ± 2 h. For the same compound, the “Furfural-dependent slow growth μ” value (E. coli W/pLOI4856) was 0.07 ± 0.01 h⁻¹, the “μ Max” value (E. coli W/pLOI4856) was 0.18 ± 0.02 h⁻¹ and the “Cell Yield” value (E. coli W/pTrc99A) was 2.0 ± 0.3 g/L. For the same compound, the “Furfural-dependent slow growth Duration” value (E. coli W/pTrc99A) was 26 ± 4 h, the “Furfural-dependent slow growth μ” value (E. coli W/pTrc99A) was 0.03 ± 0.01 h⁻¹ and the “μ Max” value (E. coli W/pTrc99A) was 0.13 ± 0.01 h⁻¹. It also gave an MIC (LY180 (pLOI4856) [4]) of 15 mM.
